Laboratory results reported in PubChem BioAssay AID602251 (NMMLSC, 2012).
Active and inactive are the calls of the source.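 The calls were made as follows: active = fitted concentration giving half of the maximal binding block below 66 µM; inactive = the rest.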

Each compound was assayed against anti-desmoglein 3 scFv antibody binding to human desmoglein 3 (DSG3) (assay: blockers of pemphigus antibody–desmoglein 3 interaction – biochemical, DSG3-coupled beads, scFv-GFP, flow cytometry, Cherry Pick 1, dose response (AID 602251)). Settings: not given.

| Structure (SMILES) | EC50 |
| --- | --- |
| Nc1ccc2nc3c(=O)[nH]c(=S)[nH]c3nc2c1 | 39.1 µM |
| CCN(CC)c1ccc(NC(=O)CCCCC(=O)Nc2ccc(N(CC)CC)cc2)cc1 | 27.2 µM |
| O=[N+]([O-])c1ccc(N=NNc2ccc([N+](=O)[O-])cc2)cc1 | 58.8 µM |
| CCC(=C/c1sc2ccc3ccccc3c2[n+]1C)/C=C1\Sc2ccc3ccccc3c2N1C | 25.9 µM |
| COc1ccccc1NC(=O)Cn1nnc(-c2ccccc2NC(=O)c2cc3ccccc3oc2=O)n1 | 25.8 µM |
| O=C(Nc1ccc(N2CCOCC2)cc1)c1ccc2nc(-c3ccco3)c(-c3ccco3)nc2c1 | 25.4 µM |
| COCCCNC(=O)c1c(N)n(-c2ccc(S(N)(=O)=O)cc2)c2nc3ccccc3nc12 | 25.6 µM |
| O=C(CSc1ccc(Cl)cc1)Nc1cccc(-c2nc3ccccc3[nH]2)c1 | 59.2 µM |
| O=C(O)c1cccc2c1NC(C(=O)O)C1CC(Sc3ccccc3[N+](=O)[O-])C(Cl)C21 (stereo not given) | 29 µM |
| COCCn1c(=NC(=O)CCS(=O)(=O)c2ccccc2)sc2cc(C(=O)OC)ccc21 | 25.4 µM |
| CCc1nnc(NC(=O)CSc2nncc(=O)n2N)s1 | 55 µM |
| COc1ccc2cc(-c3cc(C(=O)OCC(=O)NC4CCS(=O)(=O)C4)c4ccccc4n3)ccc2c1 (stereo not given) | 19.2 µM |
| CN1C(=CC=C2C=C(I)C(=O)C(I)=C2)C(C)(C)c2ccccc21 | 15.7 µM |
| O=c1c2c([N+](=O)[O-])cc([N+](=O)[O-])cc2sn1Cc1ccccc1 | 9.8 µM |
| CCOc1ccc2c(ccc(/C=C/c3cc(C)c4cccnc4c3O)[n+]2C)c1 | 1.08 µM |
| COc1ccc(-n2c(SCC(=O)Nc3nccs3)nnc2-c2ccc(Cl)cc2)cc1 | 28.1 µM |
| COc1cc(C(=O)Nc2cccc(-c3nc4cc(C)ccc4o3)c2C)cc(OC)c1OC | 24.6 µM |
| C=CCn1c(SCC(=O)N2CCN(c3ccccc3)CC2)nc2c([nH]c3ccccc32)c1=O | 50.9 µM |
| C=CCNC(=O)c1c(N)n(-c2cccc(S(N)(=O)=O)c2)c2nc3ccccc3nc12 | 58.5 µM |
| O=C(NC1CCCCC1)C(c1ccc(O)cc1)N(CC1CCCO1)C(=O)C1COc2ccccc2O1 (stereo not given) | 37.7 µM |
| Cc1ccc(NC(=O)CN2C(=O)N/C(=C/c3cccn3-c3ccc(C(=O)O)cc3)C2=O)cc1 | 48.4 µM |

Same assay, conditions: at 66.1 µM (top of the series)

| Structure (SMILES) | binding response, lower = inhibition |
| --- | --- |
| Nc1ncnc2oc(-c3ccco3)c(-c3ccco3)c12 | inactive |
| CC(C)OC(=O)CSc1nc2c(cc1C#N)CCCCC2 | inactive |
| COc1ccc2cc(C#N)c(SCC(=O)N3CC(=O)Nc4ccccc43)nc2c1 | inactive |
| CC(=O)c1ccc(NC(=O)CSc2ccsc2[N+](=O)[O-])cc1 | inactive |
| Nc1c(C(=O)c2ccccc2)oc2ccc([N+](=O)[O-])cc12 | inactive |
| CCc1ccc(OCC(=O)Nc2ccc(N3CCN(C(=O)c4ccccc4)CC3)cc2)cc1 | inactive |
| O=C(NCc1ccccc1)c1ccc(C(=O)NCc2ccccc2)cc1 | inactive |
| COc1ccccc1CNC(=O)COC(=O)c1ccc(S(=O)(=O)N2CCCCC2)cc1 | inactive |
| CCOc1ccc2nc(NC(=O)c3ccc(S(=O)(=O)N4CCOCC4)cc3)sc2c1 | inactive |
| Cc1c(C(=O)Nc2ccc(OCc3ccccc3)cc2)cccc1[N+](=O)[O-] | inactive |
| CCc1ccc(-c2cc(C(=O)Nc3ccc(S(=O)(=O)NC(C)=O)cc3)c3ccccc3n2)cc1 | inactive |
| COc1cc2sc3ccc(C#Cc4ccccn4)cc3c(=O)c2cc1OC | inactive |
| O=C(Nc1ccc(-c2cn3c(n2)SCC3)cc1)c1ccc2c(c1)OCO2 | inactive |
| COc1ccc(O)c(/C=N/n2c(-c3ccco3)csc2=Nc2cccnc2)c1 | inactive |
| CCC(C)n1cnc2c(c1=O)c1nc3ccccc3nc1n2-c1ccc2c(c1)OCCO2 (stereo not given) | inactive |
| Cc1ccsc1-c1nc(-c2ccccc2)c(-c2ccccc2)[nH]1 | inactive |
| Cc1ccc(NC(=O)CSc2ccc(C(N)=O)cc2[N+](=O)[O-])cc1C | inactive |
| Cc1ccc(O)c(NC(=O)CSc2ccc(Cl)cc2)c1 | inactive |
| COc1ccc(NC(=O)c2cc(-c3ccco3)nc3ccccc23)cc1 | inactive |
| O=C(Cc1ccccc1)Nc1ccc(NC(=O)c2cccs2)cc1Cl | inactive |
| O=C(NC1CCCC1)C(c1ccc(O)cc1)N(CC1CCCO1)C(=O)C1COc2ccccc2O1 (stereo not given) | inactive |
| O=[N+]([O-])c1ccc(NCCNc2ccc([N+](=O)[O-])cc2)cc1 | inactive |
| CSc1ccccc1OCc1cc(C(=O)NCCC2=CCCCC2)no1 | inactive |

| Structure (SMILES) | binding response, lower = inhibition |
| --- | --- |
| COc1ccc(NC(=O)c2ccc3c(c2)S(=O)(=O)c2ccccc2C3=O)cc1 | inactive |
| O=C(CSc1ccsc1[N+](=O)[O-])Nc1cc(F)ccc1F | inactive |
| CC(=O)Nc1ccc(-c2cc(-c3ccccc3)nc(-c3ccccc3)n2)cc1 | inactive |
| O=C(COc1cc2oc(=O)c3c(c2cc1Cl)CCC3)Nc1ccccn1 | inactive |
| COc1ccc(CCNC(=O)COc2ccc(-c3ccc(C)cc3)cc2)cc1OC | inactive |
| CSc1nc(SCC(=O)O)c2sc3nc(-c4ccccc4)c4c(c3c2n1)CCC4 | inactive |
| Cc1cc(=O)oc2c(C)c(OCC(=O)NCc3ccccn3)ccc12 | inactive |
| COc1ccc2c(c1)c(N=NC(N)=S)c(O)n2CC(=O)c1ccccc1 | inactive |
| COc1ccc(NC(=O)c2ccc3c(c2)C(=O)N(Cc2cccnc2)C3=O)cc1 | inactive |
| COc1ccc(Cl)cc1NC(=O)CSc1nc(NS(=O)(=O)c2ccc(C)cc2)cc(=O)[nH]1 | inactive |
| COc1ccc(C2=C(Nc3ccc(F)cc3)c3ccccc3C2=O)cc1 | inactive |
| CCOC(=O)c1cn(-c2ccc([N+](=O)[O-])cc2)c2cc(Cl)c([N+](=O)[O-])cc2c1=O | inactive |
| O=C(COC(=O)c1ccc(S(=O)(=O)N2CCc3ccccc3C2)cc1)NC1CCS(=O)(=O)C1 (stereo not given) | inactive |
| O=C(NCCN1C(=O)S/C(=C\c2ccc(Cl)c(Cl)c2)C1=O)c1cnccn1 | inactive |
| CCOC(=O)CN1C(=O)/C(=C/c2ccccc2Br)Oc2ccccc21 | inactive |
| CCOc1ccc(-n2nc3ccc(NC(=O)c4ccc5c(c4)OCCO5)cc3n2)cc1 | inactive |
| CCOC(=O)C1=C(N)n2c(s/c(=C\c3cccnc3)c2=O)=C(C(=O)OC)C1c1cccnc1 (stereo not given) | inactive |
| O=C(Nc1ccc(NS(=O)(=O)c2ccccc2)cc1)c1ccc(Cl)cc1 | inactive |
| O=C1NN(c2cccc(Br)c2)C(=O)/C1=C/c1ccc(-c2cc([N+](=O)[O-])ccc2O)o1 | inactive |
| CCOc1ccc(N(CC(=O)NCCSCc2ccco2)S(=O)(=O)c2ccc(C)cc2)cc1 | inactive |
| COc1ccc(-c2cn3c(C)c(C(=O)Nc4cccc(NC(C)=O)c4)sc3n2)cc1 | inactive |
| CSCCC(NC(=O)C12CC3CC(CC(C3)C1)C2)C(=O)OCC(=O)c1ccc(C)cc1 (stereo not given) | inactive |
| O=C(Nc1ccc(N2CCN(C(=O)c3ccccc3)CC2)cc1)c1cc2ccccc2o1 | inactive |

| Structure (SMILES) | binding response, lower = inhibition |
| --- | --- |
| COc1ccc(C(=O)Nc2ccc(NC(=O)c3cnccn3)cn2)cc1 | inactive |
| COc1ccc(CNC(=O)c2ccc(-c3ccccc3)cc2)cc1OC | inactive |
| Cc1cccc(NC(=O)Cn2nnc(C(=O)NCc3cccs3)c2N)c1C | inactive |
| Cc1cc(SCC(=O)Nc2ccc3[nH]c(=O)[nH]c3c2)nc2ccccc12 | inactive |
| COc1ccc(NC(=O)c2cc(-c3ccc(C)o3)nc3ccccc23)cc1OC | inactive |
| Cc1ccc(-c2nc3sc(C#N)c(N)n3c(=O)c2C#N)cc1 | inactive |
| Cc1ccc(NC(=O)c2sc(N)nc2-c2ccc([N+](=O)[O-])cc2)cc1C | inactive |
| C=CCSc1nc(N)c(C(=O)Nc2ccccc2)cc1C#N | inactive |
| COc1ccc(NC(=O)Cn2nnc(C(=O)NCc3ccccc3)c2N)cc1Cl | inactive |
| COc1cccc(C(C(=O)NC2CCCCC2)N(CCN2CCOCC2)C(=O)C2COc3ccccc3O2)c1 (stereo not given) | inactive |
| COc1ccc(N2CCN(C(=O)c3sc4nc(-c5ccc(F)cc5)cn4c3C)CC2)cc1 | inactive |
| Nc1cc(-c2ccc(Br)cc2)nn1S(=O)(=O)c1ccccc1 | inactive |
| COc1ccc(C(C(=O)NC2CCCCC2)N(CC2CCCO2)C(=O)C2COc3ccccc3O2)cc1OC (stereo not given) | inactive |
| O=C(O)CCC(=O)NCCC1=c2ccccc2=N/C1=C\c1c(O)n(Cc2ccc(F)cc2)c(=S)[nH]c1=O | inactive |
| O=C(COC(=O)Cc1ccc(-c2ccccc2)cc1)NCc1ccc(F)cc1 | inactive |
| CCOc1ccc(NC(=O)c2ccc(NC(=O)CSc3nc4ccccc4c(=O)[nH]3)cc2)cc1 | inactive |
| CN(C(=O)CSc1nc2cc([N+](=O)[O-])ccc2n1-c1ccc(F)cc1)C1CCS(=O)(=O)C1 (stereo not given) | inactive |
| NC(=O)c1ccc(NC(=O)CSc2nnc(-c3ccc4c(c3)OCO4)o2)cc1 | inactive |
| Cc1ccc2oc(-c3ccc(NC(=O)CC(C)C)cc3)nc2c1 | inactive |
| S=c1[nH]ncn1/N=C/c1ccccc1 | inactive |
| C=CCSc1nc(N)c(C#N)c(-c2ccccc2)c1C#N | inactive |
| Cc1cc(NC(=O)CSc2nnc(-c3c[nH]c4ccccc34)n2-c2ccc(F)cc2)no1 | inactive |
| CCCn1c(C)nc2c(c1=O)c1nc3ccccc3nc1n2-c1ccccc1 | inactive |
